# Measurements published in publication PMC6556568, “A surface-exposed GH26 β-mannanase from Bacteroides ovatus: Structure, role, and phylogenetic analysis of BoMan26B” (The Journal of Biological Chemistry, 2019).
# Molecular target: T1, BoMan26B (Bacteroides ovatus, UniProt A0ABU3IS29)
# T1 construct: gene RO706_12620; signal peptide (first 19 residues) removed; recombinant in E. coli BL21(DE3), purified on a HisTrap column; residues 37-361 modelled; catalytic Glu-201 and Glu-291
# T1 sequence (A0ABU3IS29 20-360): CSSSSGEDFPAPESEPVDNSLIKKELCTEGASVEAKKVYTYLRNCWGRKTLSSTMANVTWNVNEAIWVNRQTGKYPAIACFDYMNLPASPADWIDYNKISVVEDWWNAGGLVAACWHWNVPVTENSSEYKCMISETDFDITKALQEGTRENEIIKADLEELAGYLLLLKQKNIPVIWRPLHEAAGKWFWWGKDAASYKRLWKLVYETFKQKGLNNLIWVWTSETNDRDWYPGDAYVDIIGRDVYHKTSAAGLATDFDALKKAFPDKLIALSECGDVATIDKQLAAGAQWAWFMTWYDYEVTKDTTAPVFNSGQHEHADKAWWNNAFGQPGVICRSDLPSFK
# Experiment: hydrolysis in H2^[…], MALDI-TOF MS and HPAEC-PAD
# Assay type: biochemical
# Conditions: 2 mM M6, 1 mM CaCl2, potassium phosphate pH 6.5, 8 °C
smiles,measurement,value
"OC[C@H]1O[C@@H](O[C@H]2[C@H](O)[C@H](O)[C@H](O[C@H]3[C@H](O)[C@H](O)[C@H](O[C@H]4[C@H](O)[C@H](O)[C@H](O[C@H]5[C@H](O)[C@H](O)[C@H](O[C@H]6[C@H](O)[C@H](O)C(O)O[C@@H]6CO)O[C@@H]5CO)O[C@@H]4CO)O[C@@H]3CO)O[C@@H]2CO)[C@@H](O)[C@@H](O)[C@@H]1O (stereo partly shown) [M6, mannohexaose]","hydrolysis in H2^18O, MALDI-TOF MS and HPAEC-PAD",The main hydrolytic events of BoMan26B on M6 result in production of mannose
